According to US12077503B2, “Substituted cyclic amides and their use as herbicides” (FMC CORPORATION, priority 2015, dated 2024):

Columns and labels:
Assay type in all cases: in vivo
Kochia (Kochia scoparia) [1] = assay: Test A preemergence; details: Bassia scoparia, pre-emergence, 240 h, Preemergence
How it was run: (§1)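 Preemergence soil spray on seeded pots or post-emergence spray on 1–2 leaf plants, in loam–sand blend. Greenhouse ~10 d. Visual rating 0–100 against untreated plants.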

[2] = tested on: barnyardgrass (Echinochloa crus-galli); assay: Test A preemergence; details: Echinochloa crus-galli, pre-emergence, 240 h, Preemergence
How it was run: as §1

[3] = tested on: giant foxtail (Setaria faberii); assay: Test A preemergence; details: Setaria faberi, pre-emergence, 240 h, Preemergence
How it was run: as §1

[4] = tested on: pigweed (Amaranthus retroflexus); assay: Test A preemergence; details: Amaranthus retroflexus, pre-emergence, 240 h, Preemergence
[5] = tested on: ragweed (common ragweed, Ambrosia elatior); assay: Test A preemergence; details: Ambrosia artemisiifolia, pre-emergence, 240 h, Preemergence
How it was run: as §1

[6] = tested on: ryegrass, Italian (Italian ryegrass, Lolium multiflorum); assay: Test A preemergence; details: Lolium multiflorum, pre-emergence, 240 h, Preemergence
How it was run: as §1

Kochia (Kochia scoparia) [7] = assay: Test A postemergence; details: Bassia scoparia, post-emergence, 240 h, Postemergence, read-out: Kochia plant response rating (0 to 100 scale)
How it was run: as §1

[8] = tested on: barnyardgrass (Echinochloa crus-galli); assay: Test A postemergence; details: Echinochloa crus-galli, post-emergence, 240 h, Postemergence
How it was run: as §1

[9] = tested on: blackgrass (Alopecurus myosuroides); assay: Test A postemergence; details: Alopecurus myosuroides, post-emergence, 240 h, Postemergence, read-out: Blackgrass plant response rating (0 to 100 scale)
How it was run: as §1

corn (Zea mays) = assay: Test A postemergence; details: Zea mays, post-emergence, 240 h, Postemergence, read-out: Corn plant response rating (0 to 100 scale)
How it was run: as §1

[10] = tested on: giant foxtail (Setaria faberii); assay: Test A postemergence; details: Setaria faberi, post-emergence, 240 h, Postemergence, read-out: Foxtail, Giant plant response rating (0 to 100 scale)
How it was run: as §1

[11] = tested on: pigweed (Amaranthus retroflexus); assay: Test A postemergence; details: Amaranthus retroflexus, post-emergence, 240 h, Postemergence, read-out: Pigweed plant response rating (0 to 100 scale)
How it was run: as §1

[12] = tested on: ragweed (common ragweed, Ambrosia elatior); assay: Test A postemergence; details: Ambrosia artemisiifolia, post-emergence, 240 h, Postemergence, read-out: Ragweed plant response rating (0 to 100 scale)
How it was run: as §1

[13] = tested on: ryegrass, Italian (Italian ryegrass, Lolium multiflorum); assay: Test A postemergence; details: Lolium multiflorum, post-emergence, 240 h, Postemergence, read-out: Ryegrass, Italian plant response rating (0 to 100 scale)
How it was run: as §1

[14] = tested on: wheat (Triticum aestivum); assay: Test A postemergence; details: Triticum aestivum, post-emergence, 240 h, Postemergence, read-out: Wheat plant response rating (0 to 100 scale)
How it was run: as §1

[15] = tested on: barnyardgrass (Echinochloa crus-galli); assay: Test B flooded paddy test; details: Echinochloa crus-galli, 360 h, Flood, 250 g ai/ha; visually evaluated after 13 to 15 d; read-out: Plant response rating, Barnyardgrass (0 to 100 scale where 0 is no effect and 100 is complete control)
How it was run: (§2)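 Percent control, visually estimated after 13–15 d in the greenhouse on a 0–100 basis, compares treated pots with untreated ones; compound was put into paddy water 3 cm above the soil when plants had two leaves.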

[16] = tested on: ducksalad (Heteranthera limosa); assay: Test B flooded paddy test; details: Heteranthera limosa, 360 h, Flood, 250 g ai/ha; visually evaluated after 13 to 15 d; read-out: Plant response rating, Ducksalad (0 to 100 scale where 0 is no effect and 100 is complete control)
How it was run: as §2

rice (Oryra sativa) = assay: Test B flooded paddy test; details: Oryza sativa, 360 h, Flood, 250 g ai/ha; visually evaluated after 13 to 15 d; read-out: Plant response rating, Rice (0 to 100 scale where 0 is no effect and 100 is complete control)
How it was run: as §2

[17] = tested on: sedge, umbrella (small-flower umbrella sedge, Cyperus difformis); assay: Test B flooded paddy test; details: Cyperus difformis, 360 h, Flood, 250 g ai/ha; visually evaluated after 13 to 15 d; read-out: Plant response rating, Sedge, Umbrella (0 to 100 scale where 0 is no effect and 100 is complete control)
How it was run: as §2

[18] = 125 g ai/ha, visual rating about 10 d after treatment
[19] = 31 g ai/ha, 0 is no effect, 100 is complete control

## COc1ccc([C@H]2CN(C)C(=O)[C@@H]2C(=O)Nc2ccccc2F)cc1 [Compound 1342]
Kochia (Kochia scoparia) [1]; 31 g ai/ha, 0 to 100 scale where 0 is no effect and 100 is complete control, read-out: Kochia plant response rating
  pest or weed control at 31 g/ha: 0%
Kochia (Kochia scoparia) [1]; 125 g ai/ha, 0 to 100 scale (0 no effect, 100 complete control), read-out: Plant response rating, Kochia
  pest or weed control at 125 g/ha: 0%
[2]; 31 g ai/ha, 0 to 100 scale where 0 is no effect and 100 is complete control, read-out: Barnyardgrass plant response rating
  pest or weed control at 31 g/ha: 60%
[2]; 125 g ai/ha, 0 to 100 scale (0 no effect, 100 complete control), read-out: Plant response rating, Barnyardgrass
  pest or weed control at 125 g/ha: 90%
[3]; 31 g ai/ha, 0 to 100 scale where 0 is no effect and 100 is complete control, read-out: Foxtail, Giant plant response rating
  pest or weed control at 31 g/ha: 90%
[3]; 125 g ai/ha, 0 to 100 scale (0 no effect, 100 complete control), read-out: Plant response rating, Foxtail, Giant
  pest or weed control at 125 g/ha: 100%
[4]; 31 g ai/ha, 0 to 100 scale where 0 is no effect and 100 is complete control, read-out: Pigweed plant response rating
  pest or weed control at 31 g/ha: 0%
[4]; 125 g ai/ha, 0 to 100 scale (0 no effect, 100 complete control), read-out: Plant response rating, Pigweed
  pest or weed control at 125 g/ha: 20%
[5]; 31 g ai/ha, 0 to 100 scale where 0 is no effect and 100 is complete control, read-out: Ragweed plant response rating
  pest or weed control at 31 g/ha: 0%
[5]; 125 g ai/ha, 0 to 100 scale (0 no effect, 100 complete control), read-out: Plant response rating, Ragweed
  pest or weed control at 125 g/ha: 0%
[6]; 31 g ai/ha, 0 to 100 scale where 0 is no effect and 100 is complete control, read-out: Ryegrass, Italian plant response rating
  pest or weed control at 31 g/ha: 0%
[6]; 125 g ai/ha, 0 to 100 scale (0 no effect, 100 complete control), read-out: Plant response rating, Ryegrass, Italian
  pest or weed control at 125 g/ha: 0%
Kochia (Kochia scoparia) [7]; [18]
  pest or weed control at 125 g/ha: 20%
Kochia (Kochia scoparia) [7]; [19]
  pest or weed control at 31 g/ha: 0%
[8]; 125 g ai/ha, visual rating about 10 d after treatment, read-out: Barnyardgrass plant response rating (0 to 100 scale, 0 no effect, 100 complete control)
  pest or weed control at 125 g/ha: 90%
[8]; 31 g ai/ha, 0 is no effect, 100 is complete control, read-out: Barnyardgrass plant response rating (0 to 100 scale)
  pest or weed control at 31 g/ha: 20%
[9]; [18]
  pest or weed control at 125 g/ha: 0%
[9]; [19]
  pest or weed control at 31 g/ha: 0%
Corn (Zea mays); [18]
  plant injury at 125 g/ha: 0%
Corn (Zea mays); [19]
  plant injury at 31 g/ha: 0%
[10]; [18]
  pest or weed control at 125 g/ha: 70%
[10]; [19]
  pest or weed control at 31 g/ha: 20%
[11]; [18]
  pest or weed control at 125 g/ha: 0%
[11]; [19]
  pest or weed control at 31 g/ha: 0%
[12]; [18]
  pest or weed control at 125 g/ha: 0%
[12]; [19]
  pest or weed control at 31 g/ha: 0%
[13]; [18]
  pest or weed control at 125 g/ha: 0%
[13]; [19]
  pest or weed control at 31 g/ha: 0%
[14]; [18]
  plant injury at 125 g/ha: 0%
[14]; [19]
  plant injury at 31 g/ha: 0%
[15]
  pest or weed control at 250 g/ha: 50%
[16]
  pest or weed control at 250 g/ha: 85%
Rice (Oryra sativa)
  pest or weed control at 250 g/ha: 0%
[17]
  pest or weed control at 250 g/ha: 0%
